According to a compilation of properties of binary mixtures (doi:10.1021/acs.jced.0c00588):

Assay: xn = mol fraction of the nth substance listed
Conditions: 102 kPa

O=C(O)C(F)(F)C(F)(F)C(F)(F)C(F)(F)F + CC[n+]1ccn(C)c1.[Cl-]
viscosity [mPa·s]
Conditions | x2 = 0.3346 | x2 = 0.5026 | x2 = 0.6636
293.15 K | 35.2 | 92.1 | –
298.15 K | 29 | 72.1 | 213.4
303.15 K | – | 57.4 | 158.1
308.15 K | 20.4 | 46.4 | 119.8
313.15 K | – | 38.2 | 92.7
318.15 K | 14.99 | – | 73
323.15 K | 13.02 | – | 58.4
328.15 K | 11.4 | 22.58 | 47.5
333.15 K | 10.04 | – | –
338.15 K | – | – | 32.6
343.15 K | 7.94 | 14.53 | 27.5
348.15 K | 7.13 | – | 23.56
353.15 K | – | 11.25 | 20.29
